Patent publication US20050202511A1, “AMP-activated protein kinase (AMPK) inhibitor screening assay” (priority 2002, published 2005)
Where “and” joins values, the source holds several entries; their conditions need not be identical. Identical values can stand only once. Like-named read-outs stand apart in the source and are kept apart here.

How the values were obtained:
AMPK-γ2 CBS1-2 (WT) = target: T1, AMPK-γ2 CBS1-2 (WT) (Homo sapiens, UniProt Q9UGJ0); experiment: Filter binding assay, GST-CBS domain fusion
T1 construct: the N-terminal pair (CBS1-2, residues 274-410); made in house; host or cells: E. coli BL21 (DE3)
T1 sequence (Q9UGJ0 274-410): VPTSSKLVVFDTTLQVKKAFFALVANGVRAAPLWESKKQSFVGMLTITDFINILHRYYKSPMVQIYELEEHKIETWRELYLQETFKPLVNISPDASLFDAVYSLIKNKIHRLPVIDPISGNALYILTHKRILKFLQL
Description: The boundaries of the CBS domains were taken from the alignments by Bateman. Using a plasmid encoding human γ2 as the template, PCR was used to produce DNAs encoding all four CBS domains (CBS1-4, residues 274-569), the N-terminal pair (CBS1-2, residues 274-410) or the C-terminal pair (CBS3-4, residues 430-556). The PCR primers had been designed to create BamHI and XhoI sites at the ends, and these were used to insert them into a vector that created a fusion protein with glutathione-S-transferase at the N-terminal end followed by a hexaglycine spacer, with the CBS domains at the C-terminus. All three constructs were expressed in E. coli and could be purified on glutathione-Sepharose as soluble proteins of the expected sizes in good yield (CBS1-4, 61 kDa, 5 mg/L of culture; CBS1-2, 43 kDa, 2 mg/L; CBS3-4, 43 kDa, 2 mg/L).
Site-directed mutagenesis was used to create the point mutation in CBS1 that causes hereditary heart disease (R302Q).
(§1) Various concentrations of [^14C]-AMP, [γ^32P] […] Reactions were stopped by spotting 10 ìl onto a Millipore MF Filter Membrane disc and rapidly washing under high vacuum with 1 ml of ice-cold TBS. Radioactivity was determined on the filters by scintillation counting. Non-specific binding (which was trivial) was determined by performing the assay with GST as a control, and was subtracted. […] Data were fitted to the binding models given in the text, using GraphPad Prism 3. Estimates of parameters resulting from fits are quoted in the text and Table 1±standard error, and the curves shown in figures are theoretical curves obtained using those estimates.

AMPK-γ1 CBS1-4 = target: T2, AMPK-γ1 CBS1-4 (UniProt P80385); experiment: Filter binding assay, GST-CBS domain fusion; set-up: species or system rat; details: for Kd: two site Hill plot model, read-out: B0.5
T2 construct: B0.5; other: two site Hill plot model; h (Hill coefficient); fused on or other part: GST at the N-terminus (pGEX-KG, glycine spacer)
Method: The construct was expressed in E. coli and could be purified on glutathione-Sepharose as a soluble protein of the expected size (62 kDa) in good yield (3 mg/L of culture).
DNA encoding the CBS1-4 domains of the γ1 isoform was produced using PCR with a rat y1-encoding pcDNA3 plasmid as template. The primers used were: 5′-CGCGGATCCGCGATGGAGACGGTCATTTCTTCA-3′ (sense), 5′-CCGCTCGAGCGGGGGCTTCTTCTCTCCACCTGT-3′ (antisense). The PCR products was sub-cloned into pGEX-KG as above.
as §1

AMPK-γ3 CBS1-4 = target: T3, AMPK-γ3 CBS1-4 (Homo sapiens, UniProt Q9UGI9); experiment: Filter binding assay, GST-CBS domain fusion; details: for Kd: two site Hill plot model, read-out: B0.5
T3 construct: Human γ3 (residues 197-479) was also used as a template for PCR; made in house; host or cells: E. coli BL21 (DE3)
T3 sequence (Q9UGI9 197-479): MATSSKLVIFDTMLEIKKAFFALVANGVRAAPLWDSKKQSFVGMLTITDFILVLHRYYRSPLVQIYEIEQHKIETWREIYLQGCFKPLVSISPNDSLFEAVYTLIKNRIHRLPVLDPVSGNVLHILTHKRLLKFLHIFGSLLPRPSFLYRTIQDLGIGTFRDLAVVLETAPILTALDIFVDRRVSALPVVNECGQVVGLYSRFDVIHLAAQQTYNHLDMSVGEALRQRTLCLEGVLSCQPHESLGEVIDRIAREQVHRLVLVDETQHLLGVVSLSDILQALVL
Description: DNA fragments were produced encoding all four (CBS1-4), or the first two (CBS1-2), or the last two (CBS3-4) of the tandem CBS domains from the human AMPK γ2 subunit. DNAs were produced by the polymerase chain reaction (PCR) using the Stratagene Pfu Turbo PCR kit and a human γ2-encoding pcDNA3 plasmid as template. The following oligonucleotides were used as primers: (CBS1-4), 5′-CGCGGATCCGCGGTTCCAACCAGTTCAAAGCTTGTT-3′ (sense), 5′-CCGCTCGAGCGGCTCCGTTTCTGTCTCCTTTTGTTT-3′ (antisense); CBS1-2 (sense strand as CBS1-4), 5′-CCGCTCGAGCGGAAGCTGGAGGAACTTGAGGATTCT-3′ (antisense); CBS3-4: 5′-CGCGGATCCGCGATAGGAACGTACCACAACATTGCC-3′ (sense), 5′-CCGCTCGAGCGGGAGGATCAGGGCTTGCAGAATGTC-3′ (antisense). Human γ3 (residues 197-479) was also used as a template for PCR (14). The PCR products were subcloned into pGEX-KG as 5′-BamHI and 3′-XhoI restriction fragments for expression as glutathione-S-Transferase (GST) fusions in E. coli.
as §1

AMPK-γ2 CBS1-2 construct = target: T4, AMPK-γ2 CBS1-2 construct (Homo sapiens, UniProt Q9UGJ0); experiment: Displacement of [14C]AMP by unlabelled MgATP; assay type: binding; details: high concentrations of MgATP
T4 construct: the N-terminal pair (CBS1-2, residues 274-410); made in house; host or cells: E. coli BL21 (DE3)
T4 sequence (Q9UGJ0 274-410): as the sequence (Q9UGJ0 274-410) above
Method: This yielded estimates for KdAMP and KdATP of 51 and 180 iM. These are very close to the estimates obtained by direct binding measurements (53 and 175 iÌ).
as §1

[1] = target: T5, CLC2 CBS domain pair G826D (Homo sapiens, UniProt P51788, G828D); experiment: Filter binding assay, GST-CBS domain fusion; details: single-site model
T5 construct: DNAs encoding residues 582-840 of CLC2; made in house; host or cells: E. coli BL21 (DE3)
T5 sequence (P51788 582-840 G828D): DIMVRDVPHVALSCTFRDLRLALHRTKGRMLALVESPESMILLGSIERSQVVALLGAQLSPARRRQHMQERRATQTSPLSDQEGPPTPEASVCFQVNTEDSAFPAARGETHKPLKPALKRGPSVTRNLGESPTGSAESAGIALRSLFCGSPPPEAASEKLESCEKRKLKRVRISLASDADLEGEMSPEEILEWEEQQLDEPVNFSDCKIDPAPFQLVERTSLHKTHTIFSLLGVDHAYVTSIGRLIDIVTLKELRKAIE
Description: (§2) DNA encoding the CBS domain pair from the chloride channel CLC2 was also cloned and expressed. […] The G715E mutation, in the linker between the first and second CBS domains of CLC2, is associated with idiopathic generalized epilepsy (29), while the G826D mutation is in an equivalent position in the second CBS domain to the G859D mutation in CLC1 that is associated with congenital myotonia (28).
(§3) For IMPDH2, DNAs encoding residues 112-232 or the full-length protein (1-514) were amplified using human liver cDNA (Clontech) as template, and cloned into pHAT20 (Clontech) using 5′-AgeI and 3′-KpnI sites added to the primers. For the other constructs, DNAs encoding residues 582-840 of CLC2, or 416-551 of cystathionine â-synthase, were amplified using human liver cDNA as template, and cloned into pGEX-KG as above using 5′-BamHI and 3′-XhoI sites added to the primers. All mutations were created using the Stratagene QuikChange Site-directed Mutagenesis system.
(§4) Various concentrations of [^14C]-AMP, [γ^32P] […] Reactions were stopped by spotting 10 ìl onto a Millipore MF Filter Membrane disc and rapidly washing under high vacuum with 1 ml of ice-cold TBS. Radioactivity was determined on the filters by scintillation counting. Non-specific binding (which was trivial) was determined by performing the assay with GST as a control, and was subtracted. […]

CLC2 CBS1-2 (G715E) = target: T6, CLC2 CBS1-2 (G715E) (Homo sapiens, UniProt P51788, G715E); experiment: Filter binding assay, GST-CBS domain fusion; details: single-site model
T6 construct: DNAs encoding residues 582-840 of CLC2; made in house; host or cells: E. coli BL21 (DE3)
T6 sequence (P51788 582-840 G715E): as the sequence (P51788 582-840 G828D) above, with G134E, D247G counted along it
Description: as §2, §3, §4

AMPK = experiment: Activation of AMPK (data not shown); assay type: biochemical; details: read-out: concentration giving half-maximal activation

| SMILES | Kd (AMPK-γ2 CBS1-2 (WT); single-site model, 5 mM MgCl2 included for ATP) | h (Hill coefficient) (AMPK-γ1 CBS1-4) | Kd (AMPK-γ1 CBS1-4) | h (Hill coefficient) (AMPK-γ3 CBS1-4) | Kd (AMPK-γ3 CBS1-4) | displacement of [14C]AMP binding (AMPK-γ2 CBS1-2 construct) | Kd (AMPK-γ2 CBS1-2 (WT)) | maximal binding (Bmax) (AMPK-γ2 CBS1-2 (WT); [14C]AMP) | Kd [1] | Kd (CLC2 CBS1-2 (G715E)) | EC50 (AMPK) |
| --- | --- | --- | --- | --- | --- | --- | --- | --- | --- | --- | --- |
| Nc1ncnc2c1ncn2[C@@H]1O[C@H](COP(=O)(O)OP(=O)(O)OP(=O)(O)O)[C@@H](O)[C@H]1O [ATP] | 175 ± 17 µM | 1.9 ± 0.2 | 119 ± 7 µM | 1.5 ± 0.1 | 989 ± 58 µM | completely displaced |  |  |  |  |  |
| Nc1ncnc2c1ncn2[C@@H]1O[C@H](COP(=O)(O)O)[C@@H](O)[C@H]1O [AMP, adenosine monophosphate] |  | 1.6±0.1 and 1.6 ± 0.2 | 20 ± 1 µM | 2.2 ± 0.1 | 125 µM |  | 53 ± 5 µM | 0.95±0.05 moles of AMP per mole of protein | 14300 ± 550 µM | 10400 ± 1300 µM | 4.7 µM |
